Laboratory results published in patent publication US11123349B2, “Method of treatment” (The University of Melbourne, priority 2017, dated 2021).
Values after ≈ are worked out from the molar mass of the structure shown. Like-named read-outs stand apart in the source and are kept apart here.

Assays:
[1] = system: TNF production from whole blood stimulated with LPS; test: Whole blood assay: LPS-induced TNF-α production (L929 fibrosarcoma cell bioassay); format: cell-based, horse
Procedure: (§1) A whole blood assay was used to assess the effects of rolipram and doramapimod on cytokine production from leukocytes (white blood cells) in response to bacterial lipopolysaccharide (endotoxin).
(§2) Blood samples (10 mL; sodium citrate anticoagulant) were obtained from the six normal horses, diluted 1:1 with RPMI 1640 cell culture medium and aliquoted into 15×1 mL aliquots. Serial dilutions of rolipram and doramapimod were made from 10^−2M stock solutions in phosphate-buffered saline and DMSO, respectively, and 10 μL added to […] give final concentrations ranging from 10^−10-10^−4 Molar. The samples were then incubated with 100 ng/mL purified bacterial lipopolysaccharide (endotoxin derived from E. Coli O55:B5; purified to remove DNA and protein contaminants). After incubation for 18 hours at 37° C. in a shaking incubator, samples were centrifuged at 300 g and supernatants stored at −80° C. for cytokine analysis.
The proinflammatory cytokine, TNF-α, was measured using a L929 fibrosarcoma cell bioassay. […] The yellow tetrazole dye, 3-(4,5-dimethylthiazol-2-yl)-2,5-diphenyltetrazolium bromide (MTT), is reduced to a purple formazan compound in living cells, which is then quantified using a colorimetric plate reader (absorbance read at 570 nm with reference wavelength of 650 nm). […]
(§3) The data are expressed as % inhibition of LPS-induced cytokine production at each of the drug concentrations. […]

[2] = system: IL-1 production from whole blood stimulated with LPS; test: Whole blood assay: LPS-induced IL-1β production (ELISA); format: cell-based, horse
Procedure: as §1, §2
Plasma IL-1β concentrations were measured using an equine-specific enzyme linked immunosorbent assay (ELISA; Horse IL-1β ELISA kit, Bethyl Laboratories, Montgomery, Tex., USA). […] The optical density (OD) values of samples were determined at 450 nm using an ELISA plate reader (BioTek Synergy H1) and concentrations determined using GENS Software (version 2.00.17).
as §3

[3] = Solubility / formulation for intravenous administration; format: physicochemical
Procedure: Solubility of the drugs was tested to determine their suitability for intravenous administration (this is the route of choice for the treatment of endotoxemia).

[4] = equine whole blood, LPS, 18 hours

IC50 ([1]; Equus caballus, L929, equine whole blood diluted 1:1 with RPMI 1640, LPS, 18 hours at 37° C., read-out: IC50, inhibition of TNFa production): 653 nM
IC50 ([2]; Equus caballus, equine whole blood diluted 1:1 with RPMI 1640, LPS, 18 hours at 37° C., read-out: IC50, inhibition of IL-1 production): 1020 nM
solubility ([3]; 10% DMSO, aqueous with cosolvent or surfactant or cyclodextrin, read-out: soluble in 10% DMSO to): 1000 µg/mL (≈ 3630 µM)
solubility ([3]; water, read-out: water soluble to): 200 µg/mL (≈ 726 µM)
Compound: COc1ccc(C2CNC(=O)C2)cc1OC1CCCC1 (stereo not drawn) [rolipram]
inhibition of TNFa production at high concentrations [1, 4]: ~100%
maximum inhibition of IL-1 production [2, 4]: 39.5±7.1%
